In patent US11040981B2, “Pyrrolotriazine compounds and methods of inhibiting TAM kinases” (Syros Pharmaceuticals, Inc., priority 2017, dated 2021):

Assays:
[1] = target: T1, TYRO3 (Homo sapiens, UniProt Q06418); assay: TR-FRET kinase activity assay, TYRO3; format: biochemical; conditions: ATP at Km, 60 minutes
T1 sequence (Q06418 41-890): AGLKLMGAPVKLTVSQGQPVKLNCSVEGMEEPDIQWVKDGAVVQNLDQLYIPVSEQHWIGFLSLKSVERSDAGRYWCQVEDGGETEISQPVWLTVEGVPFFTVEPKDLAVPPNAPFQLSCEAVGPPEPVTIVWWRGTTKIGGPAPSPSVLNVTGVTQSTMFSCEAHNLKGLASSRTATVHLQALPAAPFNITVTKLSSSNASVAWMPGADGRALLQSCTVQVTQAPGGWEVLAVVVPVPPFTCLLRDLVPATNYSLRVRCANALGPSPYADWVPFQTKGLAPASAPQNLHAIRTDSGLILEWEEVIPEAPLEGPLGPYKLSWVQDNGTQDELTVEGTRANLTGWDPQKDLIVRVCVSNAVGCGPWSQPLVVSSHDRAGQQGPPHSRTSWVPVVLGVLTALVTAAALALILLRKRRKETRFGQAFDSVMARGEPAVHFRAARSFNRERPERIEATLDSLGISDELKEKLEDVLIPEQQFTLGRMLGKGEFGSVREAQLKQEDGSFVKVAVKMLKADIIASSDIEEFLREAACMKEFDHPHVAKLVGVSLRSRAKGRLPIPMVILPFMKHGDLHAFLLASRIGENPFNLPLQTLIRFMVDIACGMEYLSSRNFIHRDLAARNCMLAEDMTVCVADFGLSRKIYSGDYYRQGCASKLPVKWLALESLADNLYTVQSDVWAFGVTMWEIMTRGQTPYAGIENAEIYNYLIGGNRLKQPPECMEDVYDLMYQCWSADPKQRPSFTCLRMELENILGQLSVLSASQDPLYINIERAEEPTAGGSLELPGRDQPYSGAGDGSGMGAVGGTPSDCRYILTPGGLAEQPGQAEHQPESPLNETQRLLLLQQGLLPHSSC
Procedure, shortened: (§1)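 IC50 reflects the drop in TR-FRET between Eu anti-phosphotyrosine antibody and labelled peptide after a 60-minute room-temperature reaction. Buffer was 50 mM HEPES pH 7.5 with 10 mM MgCl2, 1 mM EGTA, 0.01% Brij 35 and 1 mM DTT, with ATP at Km per enzyme and EDTA quench.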

[2] = target: T2, MERTK (Homo sapiens, UniProt Q12866); assay: TR-FRET kinase activity assay, MERTK; format: biochemical; conditions: for IC50: TR-FRET activity assay, ATP at Km, 60 minutes, read-out: Mer IC50; for FLT3/Mer ratio (FLT3 IC50/Mer IC50): ratio of Mer to FLT3: FLT3 IC50/Mer IC50
T2 sequence (Q12866 21-999): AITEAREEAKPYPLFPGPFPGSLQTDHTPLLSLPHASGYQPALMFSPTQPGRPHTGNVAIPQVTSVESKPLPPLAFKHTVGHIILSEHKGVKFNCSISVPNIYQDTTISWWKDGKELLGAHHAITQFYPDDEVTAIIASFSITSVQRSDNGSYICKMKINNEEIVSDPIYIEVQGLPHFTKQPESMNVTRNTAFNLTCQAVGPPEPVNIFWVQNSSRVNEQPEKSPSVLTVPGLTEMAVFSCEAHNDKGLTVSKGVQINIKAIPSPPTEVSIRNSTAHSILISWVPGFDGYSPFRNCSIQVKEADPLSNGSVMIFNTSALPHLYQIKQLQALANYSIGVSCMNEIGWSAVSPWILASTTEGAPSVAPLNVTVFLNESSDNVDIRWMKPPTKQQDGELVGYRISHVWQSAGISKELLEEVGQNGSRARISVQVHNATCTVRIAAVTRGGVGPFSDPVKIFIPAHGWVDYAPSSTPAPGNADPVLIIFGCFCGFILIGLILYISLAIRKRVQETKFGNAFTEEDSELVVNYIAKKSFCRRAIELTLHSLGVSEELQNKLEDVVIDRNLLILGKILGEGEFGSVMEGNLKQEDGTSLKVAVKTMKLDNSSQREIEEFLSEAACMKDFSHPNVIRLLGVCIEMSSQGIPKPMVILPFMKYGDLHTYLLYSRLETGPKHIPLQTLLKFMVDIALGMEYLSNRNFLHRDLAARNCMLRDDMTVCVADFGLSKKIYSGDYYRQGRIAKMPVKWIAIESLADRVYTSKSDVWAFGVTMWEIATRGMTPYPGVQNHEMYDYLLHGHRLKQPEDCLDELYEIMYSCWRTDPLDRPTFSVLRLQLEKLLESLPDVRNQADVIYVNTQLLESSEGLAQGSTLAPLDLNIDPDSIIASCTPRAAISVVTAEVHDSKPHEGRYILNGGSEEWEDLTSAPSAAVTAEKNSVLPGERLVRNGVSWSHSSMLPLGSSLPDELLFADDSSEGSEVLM
Procedure, shortened: as §1

Compound | IC50 [1] [µM] | IC50 [2] [µM] | FLT3/Mer ratio (FLT3 IC50/Mer IC50) [2]
CNS(=O)(=O)c1cncc(-c2cc([C@H]3CC[C@H](O)CC3)n3nc(N[C@@H](C)CC(F)(F)F)ncc23)c1 [Compound 278] | ≤ 0.1 | ≤ 0.1 | +++ (“+++” represents a ratio of >100)
COC[C@H](C)Nc1ncc2c(-c3cnn(C(C)(C)C(=O)N4C[C@H](C)O[C@@H](C)C4)c3)cc([C@H]3CC[C@H](O)CC3)n2n1 [Compound 328] | ≤ 0.1 | ≤ 0.1 | +++ (“+++” represents a ratio of >100)
